The record followed here is patent US20250188069A1, “COMPOUNDS AND METHODS FOR DEGRADING CASEIN KINASE 1 ALPHA” (PIN THERAPEUTICS, INC., priority 2022, published 2025).

Molecules are shown by their SMILES. Structures can show the parent of a compound that is named as a salt. Where two headings read alike, the source gives them in different places. Bounds are passed on as bounds.

The target in one experiment is CK1α (Homo sapiens, UniProt P48729+Q96SW2). In words: CK1α degradation, flow cytometry in MV4-11 cells. Further details: CK1α levels were determined in MV-4-11 cells using Jess (Protein Simple); host or cells: MV-4-11. It is filed as cell-based. To be noted: % reduction of CK1α compared to DMSO, MV4-11 cells at 316 nM for 16 hours, read-out: CK1α degradation classification. As to the method:
MV-4-11 cells were obtained from ATCC and grown in IMDM supplemented with 10% FBS. The cells were maintained at 37° C. under 5% CO2.
Compounds of the present disclosure were added to cells (final DMSO concentration of 0.5%) and incubated for 16 hours. CK1α level was determined in MV4-11 cells using flow cytometry (Luminex, Guava EasyCyte Plus). Briefly, cells were prepared with sequential 10% formalin and 70% methanol fixation. […] GuavaSoft Incyte software was used to analyse the flow cytometry data. Protein levels relative to DMSO are calculated for CK1α.
The efficacy of CK1α degradation of other part of compounds of the present disclosure was determined by treating MV4-11 cells at […] (Final DMSO concentration of 0.5%) for 16 hours. Protein levels relative to DMSO are calculated for CK1α.
Protein levels relative to DMSO are calculated for CK1α.

The subject of the next experiment is MV-4-11 cells. In words: AML cell viability assay (RealTime-Glo). It is filed as cell-based. To be noted: Homo sapiens, read-out: Cell viability classification.
Where [1] appears, read: MV4-11, IC50 class, MV-4-11 cells, RealTime-Glo after 44 hrs of treatment (TABLE 3).

Sequence of CK1α (P48729 whole entry): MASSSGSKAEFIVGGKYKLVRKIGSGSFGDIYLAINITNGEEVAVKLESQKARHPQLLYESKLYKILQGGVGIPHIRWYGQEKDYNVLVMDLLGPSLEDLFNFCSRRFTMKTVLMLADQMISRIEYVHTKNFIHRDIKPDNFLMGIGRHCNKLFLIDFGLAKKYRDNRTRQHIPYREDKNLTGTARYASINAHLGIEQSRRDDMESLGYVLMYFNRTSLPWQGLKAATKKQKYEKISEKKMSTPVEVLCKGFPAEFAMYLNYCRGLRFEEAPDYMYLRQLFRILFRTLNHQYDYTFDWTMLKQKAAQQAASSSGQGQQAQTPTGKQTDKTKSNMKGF
Sequence of CK1α (Q96SW2 whole entry): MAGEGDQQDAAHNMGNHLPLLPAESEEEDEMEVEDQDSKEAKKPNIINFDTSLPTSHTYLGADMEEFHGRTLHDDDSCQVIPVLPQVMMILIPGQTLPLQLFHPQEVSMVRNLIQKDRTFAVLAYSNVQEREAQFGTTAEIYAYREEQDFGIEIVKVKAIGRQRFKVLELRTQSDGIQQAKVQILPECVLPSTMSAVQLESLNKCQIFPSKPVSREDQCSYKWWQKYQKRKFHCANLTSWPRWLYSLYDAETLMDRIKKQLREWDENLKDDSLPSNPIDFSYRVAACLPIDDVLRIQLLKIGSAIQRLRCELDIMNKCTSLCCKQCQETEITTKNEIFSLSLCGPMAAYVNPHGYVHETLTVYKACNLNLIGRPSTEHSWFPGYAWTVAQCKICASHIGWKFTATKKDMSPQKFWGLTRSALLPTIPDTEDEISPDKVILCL
Sequence of CK1α (Q16531 whole entry partner): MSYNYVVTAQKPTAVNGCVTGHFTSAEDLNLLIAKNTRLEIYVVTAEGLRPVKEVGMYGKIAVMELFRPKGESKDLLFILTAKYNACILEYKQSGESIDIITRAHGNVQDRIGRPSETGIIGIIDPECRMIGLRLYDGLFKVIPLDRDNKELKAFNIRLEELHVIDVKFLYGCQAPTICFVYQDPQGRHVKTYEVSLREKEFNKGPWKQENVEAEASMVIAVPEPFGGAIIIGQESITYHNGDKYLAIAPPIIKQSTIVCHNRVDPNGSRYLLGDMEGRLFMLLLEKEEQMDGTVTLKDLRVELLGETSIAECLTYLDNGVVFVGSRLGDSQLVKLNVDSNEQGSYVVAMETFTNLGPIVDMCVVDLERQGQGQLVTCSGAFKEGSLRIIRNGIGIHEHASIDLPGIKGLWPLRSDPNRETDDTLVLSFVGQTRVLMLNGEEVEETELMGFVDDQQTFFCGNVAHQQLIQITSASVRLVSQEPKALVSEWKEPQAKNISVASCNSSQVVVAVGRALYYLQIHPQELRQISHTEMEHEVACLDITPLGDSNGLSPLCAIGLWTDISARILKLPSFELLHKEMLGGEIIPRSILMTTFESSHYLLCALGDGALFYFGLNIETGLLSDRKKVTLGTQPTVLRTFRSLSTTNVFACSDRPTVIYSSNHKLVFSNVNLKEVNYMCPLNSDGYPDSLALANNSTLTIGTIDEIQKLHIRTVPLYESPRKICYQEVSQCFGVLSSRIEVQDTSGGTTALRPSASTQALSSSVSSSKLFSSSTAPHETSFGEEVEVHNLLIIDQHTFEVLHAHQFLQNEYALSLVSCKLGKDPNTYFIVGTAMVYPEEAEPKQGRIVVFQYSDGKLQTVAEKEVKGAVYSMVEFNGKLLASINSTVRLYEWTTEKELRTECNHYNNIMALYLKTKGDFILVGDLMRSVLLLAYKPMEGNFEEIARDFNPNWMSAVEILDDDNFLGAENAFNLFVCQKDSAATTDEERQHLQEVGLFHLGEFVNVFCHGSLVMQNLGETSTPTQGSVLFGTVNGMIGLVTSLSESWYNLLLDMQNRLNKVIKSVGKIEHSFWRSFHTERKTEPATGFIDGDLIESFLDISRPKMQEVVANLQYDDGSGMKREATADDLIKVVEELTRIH

For the molecule `CCCCCN(c1cccc2c1CN(C1CCC(=O)NC1=O)C2=O)[C@@H]1CC[C@H](CN)C1` (stereo partly drawn) [Compound 326, 3-(4-(((1R,3S)-3-(aminomethyl)cyclopentyl)(pentyl)amino)-1-oxoisoindolin-2-yl)piperidine-2,6-dione, Formic Acid salt], the Dmax at 0.316 µM on CK1α was over 75%. Further, in the experiment with MV-4-11 cells (setting [1]), the IC50 was under 100 nM.
For `C/C=C/CCN(CCCCN)c1cccc2c1CN(C1CCC(=O)NC1=O)C2=O` (centres unmarked) [Compound 93, (E)-3-(4-((4-aminobutyl)(pent-3-en-1-yl)amino)-1-oxoisoindolin-2-yl)piperidine-2,6-dione hydrochloride], in that order: over 75% and under 100 nM.
The corresponding values for `O=C1CCC(N2Cc3c(cccc3N(CCCC(F)(F)F)[C@H]3CC[C@H](NC4CC(F)(F)C4)CC3)C2=O)C(=O)N1` (some centres unmarked) [Compound 512, 3-(4-(((1r,4r)-4-((3,3-difluorocyclobutyl)amino)cyclohexyl)(4,4,4-trifluorobutyl)amino)-1-oxoisoindolin-2-yl)piperidine-2,6-dione] are 50 to 75% and 100 to 1000 nM.
The corresponding values for `CCCCCN(c1cccc2c1CN(C1CCC(=O)NC1=O)C2=O)[C@H]1CCC[C@H](CN)C1` (stereo partly drawn) [Compound 329, 3-(4-(((1S,3S)-3-(aminomethyl)cyclohexyl)(pentyl)amino)-1-oxoisoindolin-2-yl)piperidine-2,6-dione, HCl] are 50 to 75% and 100 to 1000 nM.
As to `CC(C)(C)CCN(CCCCN)c1cccc2c1CN(C1CCC(=O)NC1=O)C2=O` (centres unmarked) [Compound 223, 3-(4-((4-aminobutyl)(3,3-dimethylbutyl)amino)-1-oxoisoindolin-2-yl)piperidine-2,6-dione], the Dmax at 0.316 µM on CK1α was over 75%. In addition, in the experiment on MV-4-11 cells (setting [1]), the IC50 is under 100 nM.
For `CCCCCN(c1cccc2c1CN(C1CCC(=O)NC1=O)C2=O)[C@H]1CC[C@H](C(N)=O)CC1` (stereo partly drawn) [Compound 305, (1R,4R)-4-((2-(2,6-dioxopiperidin-3-yl)-1-oxoisoindolin-4-yl)(pentyl)amino)cyclohexane-1-carboxamide], in that order: over 75% and under 100 nM.
For `CC(C)CN(c1cccc2c1CN(C1CCC(=O)NC1=O)C2=O)[C@H]1CC[C@H](N)CC1` (some centres unmarked) [Compound 236, 3-(4-(((1r,4r)-4-aminocyclohexyl)(isobutyl)amino)-1-oxoisoindolin-2-yl)piperidine-2,6-dione. HCl], in that order: over 75% and 100 to 1000 nM.
The corresponding values for `O=C1CCC(N2Cc3c(cccc3N(CCC3CC3)[C@H]3CC[C@H](NC4COC4)CC3)C2=O)C(=O)N1` (some centres unmarked) [Compound 517, 3-(4-((2-cyclopropylethyl)((1r,4r)-4-(oxetan-3-ylamino)cyclohexyl)amino)-1-oxoisoindolin-2-yl)piperidine-2,6-dione] are over 75% and under 100 nM.
On to `N[C@H]1CC[C@H](N(CCCC2CCNCC2)c2cccc3c2CN(C2CCC(=O)NC2=O)C3=O)CC1` (some centres unmarked) [Compound 241, 3-(4-(((1r,4r)-4-aminocyclohexyl)(3-(piperidin-4-yl)propyl)amino)-1-oxoisoindolin-2-yl)piperidine-2,6-dione, 2HCl], for which the Dmax at 0.316 µM at CK1α is under 50%. Moreover, the IC50 in the experiment on MV-4-11 cells (setting [1]) is over 1000 nM.
Regarding `N[C@H]1CC[C@H](N(CCCN2CCOCC2)c2cccc3c2CN(C2CCC(=O)NC2=O)C3=O)CC1` (some centres unmarked) [Compound 246, 3-(4-(((1r,4r)-4-aminocyclohexyl)(3-morpholinopropyl)amino)-1-oxoisoindolin-2-yl)piperidine-2,6-dione dihydrochloride], on CK1α, the Dmax at 0.316 µM is under 50%. The IC50 with MV-4-11 cells (setting [1]) was over 1000 nM.
As to `CCCCCN(c1cccc2c1CN(C1CCC(=O)NC1=O)C2=O)[C@H]1CC[C@H](C(=O)NC)CC1` (stereo partly drawn) [Compound 306, (1R,4R)-4-((2-(2,6-dioxopiperidin-3-yl)-1-oxoisoindolin-4-yl)(pentyl)amino)-N-methylcyclohexane-1-carboxamide], at CK1α, the Dmax at 0.316 µM is over 75%. In the experiment with MV-4-11 cells (setting [1]), the IC50 lay within 100 to 1000 nM.
The corresponding values for `N[C@H]1CC[C@H](N(CCCN2CCNCC2)c2cccc3c2CN(C2CCC(=O)NC2=O)C3=O)CC1` (some centres unmarked) [Compound 245, 3-(4-(((1r,4r)-4-aminocyclohexyl)(3-(piperazin-1-yl)propyl)amino)-1-oxoisoindolin-2-yl)piperidine-2,6-dione, 3HCl] are under 50% and over 1000 nM.
`NC[C@H]1CC[C@@H](N(CCC2CC2)c2cccc3c2CN(C2CCC(=O)NC2=O)C3=O)CO1` (stereo partly drawn) [Compound 522, 3-(4-{[(3R,6R)-6-(aminomethyl)oxan-3-yl](2-cyclopropylethyl)amino}-1-oxo-3H-isoindol-2-yl)piperidine-2,6-dione]: on CK1α, the Dmax at 0.316 µM was over 75%. In addition, the IC50 with MV-4-11 cells (setting [1]) was under 100 nM.
For `CCCCCN(c1cccc2c1CN(C1CCC(=O)NC1=O)C2=O)[C@H]1CC[C@H](NC(C)=O)CC1` (some centres unmarked) [Compound 168, N-((1r,4r)-4-((2-(2,6-dioxopiperidin-3-yl)-1-oxoisoindolin-4-yl)(pentyl)amino)cyclohexyl)acetamide], in that order: over 75% and 100 to 1000 nM.
The corresponding values for `O=C1CCC(N2Cc3c(cccc3N(CCC3CC3)[C@H]3CC[C@H](NCC(=O)N4CCC4)CC3)C2=O)C(=O)N1` (some centres unmarked) [Compound 546, 3-{4-[(2-cyclopropylethyl)[(1r,4r)-4-{[2-(azetidin-1-yl)-2-oxoethyl]amino}cyclohexyl]amino]-1-oxo-3H-isoindol-2-yl}piperidine-2,6 dione] are over 75% and under 100 nM.
With `N[C@H]1CC[C@H](N(CCN2CCOCC2)c2cccc3c2CN(C2CCC(=O)NC2=O)C3=O)CC1` (some centres unmarked) [Compound 244, 3-(4-(((1r,4r)-4-aminocyclohexyl)(2-morpholinoethyl)amino)-1-oxoisoindolin-2-yl)piperidine-2,6-dione, 2HCl], on CK1α, the Dmax at 0.316 µM was under 50%. In addition, in the experiment on MV-4-11 cells (setting [1]), the IC50 is over 1000 nM.
The corresponding values for `CC(C)(C)CCN(c1cccc2c1CN(C1CCC(=O)NC1=O)C2=O)[C@H]1CC[C@H](N)CC1` (stereo partly drawn) [Compound 267, 3-(4-(((1R,4R)-4-aminocyclohexyl)(3,3-dimethylbutyl)amino)-1-oxoisoindolin-2-yl)piperidine-2,6-dione hydrochloride] are over 75% and under 100 nM.
For `COC(C)(C)CN[C@H]1CC[C@H](N(CCC2CC2)c2cccc3c2CN(C2CCC(=O)NC2=O)C3=O)CC1` (some centres unmarked) [Compound 541, 3-(4-((2-cyclopropylethyl)((1r,4r)-4-((2-methoxy-2-methylpropyl)amino)cyclohexyl)amino)-1-oxoisoindolin-2-yl)piperidine-2,6-dione], in that order: over 75% and under 100 nM.
Take `CC#CCCN(CCCCN)c1cccc2c1CN(C1CCC(=O)NC1=O)C2=O` (centres unmarked) [Compound 95, 3-(4-((4-aminobutyl)(pent-3-yn-1-yl)amino)-1-oxoisoindolin-2-yl)piperidine-2,6-dione, HCl]: on CK1α, the Dmax at 0.316 µM is under 50%. The IC50 with MV-4-11 cells (setting [1]) was in the range of 100 to 1000 nM.
Turning to `NC[C@H]1CC[C@@H](N(CCC2CC2)c2cccc3c2CN(C2CCC(=O)NC2=O)C3=O)C1` (stereo partly drawn) [Compound 326A, 3-(4-(((1R,3S)-3-(aminomethyl)cyclopentyl)(2-cyclopropylethyl)amino)-1-oxoisoindolin-2-yl)piperidine-2,6-dione, HCl], the Dmax at 0.316 µM at CK1α is over 75%. Further, the IC50 in the experiment on MV-4-11 cells (setting [1]) was under 100 nM.
For the molecule `C[C@@H](N[C@H]1CC[C@H](N(CCC2CC2)c2cccc3c2CN(C2CCC(=O)NC2=O)C3=O)CC1)C(F)(F)F` (stereo partly drawn) [Compound 548, 3-(4-((2-cyclopropylethyl)((1r,4r)-4-(((R)-1,1,1-trifluoropropan-2-yl)amino)cyclohexyl)amino)-1-oxoisoindolin-2-yl)piperidine-2,6-dione], the Dmax at 0.316 µM at CK1α is under 50%. Besides, in the experiment on MV-4-11 cells (setting [1]), the IC50 was in the range of 100 to 1000 nM.
As for `CCCCCN(c1cccc2c1CN(C1CCC(=O)NC1=O)C2=O)[C@H]1CC[C@H](NC)CC1` (stereo partly drawn) [Compound 169, 3-(4-(((1R,4R)-4-(methylamino)cyclohexyl)(pentyl)amino)-1-oxoisoindolin-2-yl)piperidine-2,6-dione hydrochloride], on CK1α, the Dmax at 0.316 µM is over 75%. For the same molecule, the IC50 in the experiment with MV-4-11 cells (MV4-11, 44 h) was under 100 nM.
With `C/C=C\CCN(CCCCN)c1cccc2c1CN(C1CCC(=O)NC1=O)C2=O` (centres unmarked) [Compound 94, (Z)-3-(4-((4-aminobutyl)(pent-3-en-1-yl)amino)-1-oxoisoindolin-2-yl)piperidine-2,6-dione], the Dmax at 0.316 µM on CK1α was over 75%. Moreover, in the experiment with MV-4-11 cells (setting [1]), the IC50 was under 100 nM.
The corresponding values for `CC(C)(C)CCCN(c1cccc2c1CN(C1CCC(=O)NC1=O)C2=O)[C@H]1CC[C@H](N)CC1` (some centres unmarked) [Compound 268, 3-(4-(((1r,4r)-4-aminocyclohexyl)(4,4-dimethylpentyl)amino)-1-oxoisoindolin-2-yl)piperidine-2,6-dione, HCl] are over 75% and under 100 nM.
For `NC[C@]1(O)CC[C@H](N(CC2CC2)c2cccc3c2CN(C2CCC(=O)NC2=O)C3=O)CC1` (some centres unmarked) [Compound 536, 3-(4-(((1r,4r)-4-(aminomethyl)-4-hydroxycyclohexyl)(cyclopropylmethyl)amino)-1-oxoisoindolin-2-yl)piperidine-2,6-dione], in that order: under 50% and 100 to 1000 nM.
